Experimental findings from patent US7767854B2, “N-substituted phenylacetamide derivative and pharmaceutical composition containing the same” (Dainippon Sumitomo Pharma Co., Ltd., priority 2005, dated 2010) are described below.

The structures appear in SMILES notation. Like-named read-outs stand apart in the source and are kept apart here.

In the test the test system is male Std: Wistar rats. Put plainly: Pain test by plantar thermal stimuli (plantar test). Format: in vivo. Particulars: Rattus norvegicus, 50 μl of 0.03% (W/V) solution i.pl. into right hind-paw, 4 hours after administration, cut-off 25 seconds, read-out: % MPE (percent maximum possible effect, withdrawal latency). The protocol: Experiment 1: Pain Test by Plantar Thermal Stimuli (Plantar Test)
In the present experiment, the analgesic effect of the compounds of the invention was evaluated by the measurements of withdrawal latency to noxious thermal stimuli, according to the methods of Hargreaves, et al., [Pain, 32, 77-88 (1988)] and Field, et al., [J. Pharmacol. Exp. Ther., 282, 1242-1246 (1997)].
In detail, the experiment was carried out using male Std: Wistar rats (4 rats/group; body weight, 170-220 g) and a plantar test device (Model 7370, Ugo Basile) with infrared beam as a heat source. The rat was put into an experimental cage that is an acrylic box whose bottom is made of glass and was habituated therein. Then, the infrared beam was radiated to the plantar surface of right hind-paw thereof through the floor glass, and the withdrawal latency was measured every 5 minutes, 3 times. The intension of the infrared beam was adjusted so that the pre-drug administration latency was about 10 seconds. The cut-off time was set at 25 seconds in order to prevent a paw burn. The average of the latencies was calculated, and then it was defined as the value of the pre-drug administration latency of the test compound.
Next day, 50 μl of each solution of the test compounds [the compounds of the invention, the compounds of the comparative Examples and capsaicin (Sigma, U.S.A.)] or 50 μl of vehicle solvent (reference) was given to a right hind-paw of the rat by intraplantar injection (i. pl.) using a micro-syringe. The test compound was dissolved in a saline solution containing 10% Tween 80 (Sigma, U.S.A) and 10% ethanol to give a 0.03% (W/V) solution. The saline solution containing 10% Tween 80 and 10% ethanol was used as reference. Four hours after i.pl. administration of each the test compound or the reference to the rats, the experiment mentioned above was carried out, and then the post-drug administration latency was measured. The analgesic effects thereof were calculated with the following formula, which was known as a percent maximum possible effect (% MPE). % MPE=[(the value of post-drug latency−the value of pre-drug latency)/(25*−the value of pre-drug latency)]×100 *: cut-off time

Regarding `COc1cc(CC(=O)NC2CCC(C)CC2)ccc1O` (stereo not drawn) [Comparative Example 1, 2-(4-hydroxy-3-methoxyphenyl)-N-(4-methyl-cyclohexyl)acetamide, reference compound], the change in vivo at 300 µg/mL (4 h) was 23.3%. As to `COc1cc(CC(=O)NC2CCCCC2)ccc1O` [Comparative Example 2, N-cyclohexyl-2-(4-hydroxy-3-methoxyphenyl)-acetamide, reference compound], the change in vivo at 300 µg/mL (4 h) worked out at 30.6%. Turning to `CCCCCC1CCC(NC(=O)Cc2ccc(O)c(OC)c2)CC1` (stereo not drawn) [Example 3, 2-(4-hydroxy-3-methoxyphenyl)-N-(4-pentyl-cyclohexyl)acetamide], the change in vivo at 300 µg/mL (4 h) came out at 89.9%.

For the compound `CCC(C)(C)C1CCC(NC(=O)Cc2ccc(O)c(OC)c2)CC1` (stereo not drawn) [Example 4], where the note is “4 h”, the change in vivo at 300 µg/mL is 56.6%. On the same count and under the same terms, the result for `COc1cc(CC(=O)NC2CCC(C3CCCCC3)CC2)ccc1O` (stereo not drawn) [Example 5] reads 59.2%.

Regarding `COc1cc(CC(=O)NC2CCC(c3ccccc3)CC2)ccc1O` (stereo not drawn) [Example 6], for the setting “4 h”, the change in vivo at 300 µg/mL stood at 82.6%.

Regarding `CCCC[C@H]1CC[C@@H](NC(=O)Cc2ccc(O)c(OC)c2)CC1` [Example 7], the change in vivo at 300 µg/mL (4 h) came to 78.6%. Still for that read-out and setting: the result for `CCCC1(CCC)CCC(NC(=O)Cc2ccc(O)c(OC)c2)CC1` [Example 9, N-(4,4-dipropylcyclohexyl)-2-(4-hydroxy-3-methoxyphenyl)acetamide] reads 64.7%; that for `COc1cc(CC(=O)N[C@H]2CC[C@H](/C=C\C(C)C)CC2)ccc1O` [Example 14, 2-(4-hydroxy-3-methoxyphenyl)-N-{trans-4-[(Z)-3-methyl-1-butenyl]cyclohexyl}acetamide], 100%. On to `COc1cc(CC(=O)N[C@H]2CC[C@H](/C=C\CC(C)C)CC2)ccc1O` [Example 15], for which, under “4 h”, the change in vivo at 300 µg/mL is 94.4%.

For the compound `CCC/C=C\[C@H]1CC[C@H](NC(=O)Cc2ccc(O)c(OC)c2)CC1` [Example 17], the change in vivo at 300 µg/mL (4 h) was determined as 74.9%. With `COc1cc(CC(=O)N[C@H]2CC[C@H](/C=C\C3CC3)CC2)ccc1O` [Example 18], the change in vivo at 300 µg/mL (4 h) stood at 80.5%. Consider `C=C/C=C/[C@H]1CC[C@H](NC(=O)Cc2ccc(O)c(OC)c2)CC1` [Example 19], for which the change in vivo at 300 µg/mL (4 h) amounted to 35.9%.

With `CCOC(=O)/C=C/[C@H]1CC[C@H](NC(=O)Cc2ccc(O)c(OC)c2)CC1` [Example 20], the change in vivo at 300 µg/mL (4 h) is 53.8%. Regarding `COc1cc(CC(=O)N[C@H]2CC[C@H](/C=C/C(C)=O)CC2)ccc1O` [Example 21], the change in vivo at 300 µg/mL (4 h) worked out at 50.3%.

Regarding `COc1cc(CC(=O)N[C@H]2CC[C@H](/C=C\CC(F)(F)F)CC2)ccc1O` [Example 23], the change in vivo at 300 µg/mL (4 h) came out at 77.9%.

In the case of `COc1cc(CC(=O)N[C@H]2CC[C@H](C=C(C)C)CC2)ccc1O` [Example 24], the change in vivo at 300 µg/mL (4 h) is 72.4%. Turning to `COc1cc(CC(=O)N[C@H]2CC[C@H](C=C3CCCC3)CC2)ccc1O` [Example 25], under “4 h”, the change in vivo at 300 µg/mL turned out to be 98.3%. As for `CCCC[C@H]1CC[C@H](NC(=O)Cc2ccc(O)c(OC)c2)CC1` [Example 28], the change in vivo at 300 µg/mL (4 h) turned out to be 87.1%. Consider `CCOC(=O)CC[C@H]1CC[C@H](NC(=O)Cc2ccc(O)c(OC)c2)CC1` [Example 29], for which the change in vivo at 300 µg/mL (4 h) was found to be 45.8%. Take `CCCCC[C@H]1CC[C@H](NC(=O)Cc2ccc(O)c(OC)c2)CC1` [Example 30]: the change in vivo at 300 µg/mL (4 h) is 71.3%. As for `CCC[C@H]1CC[C@H](NC(=O)Cc2ccc(O)c(OC)c2)CC1` [Example 31], the change in vivo at 300 µg/mL (4 h) was found to be 54.3%. Same read-out and setting: with `COc1cc(CC(=O)N[C@H]2CC[C@H](CCC3CC3)CC2)ccc1O` [Example 32] the figure was 85.5%. As to `COc1cc(CC(=O)N[C@H]2CC[C@H](CC(C)C)CC2)ccc1O` [Example 33], the change in vivo at 300 µg/mL (4 h) amounted to 73.3%. Same read-out and setting: with `COc1cc(CC(=O)N[C@H]2CC[C@H](CC3CCCC3)CC2)ccc1O` [Example 34] the figure was 97.8%; with `CCCCO[C@H]1CC[C@H](NC(=O)Cc2ccc(O)c(OC)c2)CC1` [Example 35, N-(trans-4-butoxycyclohexyl)-2-(4-hydroxy-3-methoxyphenyl)acetamide], 42.8%. In the case of `COc1cc(CC(=O)N[C@H]2CC[C@H](OCCC(C)C)CC2)ccc1O` [Example 37], the change in vivo at 300 µg/mL (4 h) turned out to be 49.9%. Consider `COc1cc(CC(=O)N[C@H]2CC[C@H](OCCCC(F)(F)F)CC2)ccc1O` [Example 38], for which the change in vivo at 300 µg/mL (4 h) was found to be 57.6%. As to `CCCCOC[C@H]1CC[C@H](NC(=O)Cc2ccc(O)c(OC)c2)CC1` [Example 39], the change in vivo at 300 µg/mL (4 h) came to 39.6%. `COc1cc(CC(=O)N[C@H]2CC[C@H](OC(=O)c3ccc(C)cc3)CC2)ccc1O` [Example 40, 2-(4-hydroxy-3-methoxyphenyl)-N-[trans-4-(4-methylphenylcarbonyloxy)cyclohexyl]acetamide]: the change in vivo at 300 µg/mL (4 h) came out at 48.3%.

`COc1cc(CC(=O)N[C@H]2CC[C@H](OC(=O)Cc3ccccc3)CC2)ccc1O` [Example 41, N-[trans-4-(benzylcarbonyloxy)cyclohexyl]-2-(4-hydroxy-3-methoxyphenyl)acetamide]: the change in vivo at 300 µg/mL came to 45.8%. Take `COc1cc(CC(=O)N[C@H]2CC[C@@H](CC=C(C)C)CC2)ccc1O` [Example 47, 2-(4-hydroxy-3-methoxyphenyl)-N-[cis-4-(3-methyl-2-butenyl)cyclohexyl]acetamide]: the change in vivo at 300 µg/mL (4 h) was 69%. Take `COc1cc(CC(=O)N[C@H]2CC[C@@H](CCC(C)C)CC2)ccc1O` [Example 48, 2-(4-hydroxy-3-methoxyphenyl)-N-[cis-4-(3-methylbutyl)cyclohexyl]acetamide]: where the note is “4 h”, the change in vivo at 300 µg/mL was 79.6%.

As to `CC/C=C\[C@H]1CC[C@@H](NC(=O)Cc2ccc(O)c(OC)c2)CC1` [Example 49, N-{cis-4-[(Z)-1-butenyl]cyclohexyl}-2-(4-hydroxy-3-methoxyphenyl)acetamide], the change in vivo at 300 µg/mL (4 h) was determined as 97%. For `C/C=C\[C@H]1CC[C@@H](NC(=O)Cc2ccc(O)c(OC)c2)CC1` [Example 50], the change in vivo at 300 µg/mL (4 h) was determined as 48.2%. The same measure, in the same setting: the result for `COc1cc(CC(=O)N[C@H]2CC[C@@H](/C=C\CC(C)C)CC2)ccc1O` [Example 51] reads 96.4%; that for `CC/C=C/[C@H]1CC[C@H](NC(=O)Cc2ccc(O)c(OC)c2)CC1` [Example 52, N-{trans-4-[(E)-1-butenyl]cyclohexyl}-2-(4-hydroxy-3-methoxyphenyl)acetamide], 91.5%. For the compound `C/C=C/[C@H]1CC[C@H](NC(=O)Cc2ccc(O)c(OC)c2)CC1` [Example 53], the change in vivo at 300 µg/mL (4 h) came out at 47.1%.

With `CCC/C=C/[C@H]1CC[C@H](NC(=O)Cc2ccc(O)c(OC)c2)CC1` [Example 54], under “4 h”, the change in vivo at 300 µg/mL was 82.5%. As for `COc1cc(CC(=O)N[C@H]2CC[C@H](/C=C/C3CC3)CC2)ccc1O` [Example 55], the change in vivo at 300 µg/mL (4 h) came to 55.4%. Turning to `COc1cc(CC(=O)N[C@H]2CC[C@H](/C=C/CC(C)C)CC2)ccc1O` [Example 56], the change in vivo at 300 µg/mL (4 h) is 70.2%.

On to `COc1cc(CC(=O)N[C@H]2CC[C@H](/C=C/C3CCC3)CC2)ccc1O` [Example 57], for which the change in vivo at 300 µg/mL (4 h) was 54.2%.

Consider `COc1cc(CC(=O)N[C@H]2CC[C@H](/C=C/CC3CC3)CC2)ccc1O` [Example 58], for which the change in vivo at 300 µg/mL (4 h) turned out to be 48.6%. For the compound `COc1cc(CC(=O)N[C@H]2CC[C@H](CCC3CCC3)CC2)ccc1O` [Example 59, N-[trans-4-(2-cyclobutylethyl)cyclohexyl]-2-(4-hydroxy-3-methoxyphenyl)acetamide], the change in vivo at 300 µg/mL (4 h) was determined as 74.7%. In the case of `CCC/C=C/[C@H]1CC[C@@H](NC(=O)Cc2ccc(O)c(OC)c2)CC1` [Example 60, 2-(4-hydroxy-3-methoxyphenyl)-N-{cis-4-[(E)-1-pentenyl]cyclohexyl}acetamide], where the note is “4 h”, the change in vivo at 300 µg/mL was found to be 91.4%. Turning to `C/C=C/[C@H]1CC[C@@H](NC(=O)Cc2ccc(O)c(OC)c2)CC1` [Example 61], the change in vivo at 300 µg/mL (4 h) worked out at 49.4%. Consider `CC/C=C/[C@H]1CC[C@@H](NC(=O)Cc2ccc(O)c(OC)c2)CC1` [Example 62], for which, for the setting “4 h”, the change in vivo at 300 µg/mL was 86.3%. On to `COc1cc(CC(=O)N[C@H]2CC[C@@H](/C=C/C(C)C)CC2)ccc1O` [Example 63], for which, where the note is “4 h”, the change in vivo at 300 µg/mL was determined as 96.4%. With `COc1cc(CC(=O)N[C@H]2CC[C@@H](/C=C/C3CC3)CC2)ccc1O` [Example 64], the change in vivo at 300 µg/mL (4 h) was 71.1%. As to `COc1cc(CC(=O)N[C@H]2CC[C@@H](/C=C/CC(C)C)CC2)ccc1O` [Example 65], for the setting “4 h”, the change in vivo at 300 µg/mL amounted to 100%. As for `COc1cc(CC(=O)N[C@H]2CC[C@@H](/C=C/C3CCC3)CC2)ccc1O` [Example 66], the change in vivo at 300 µg/mL (4 h) was 88%.
